The record followed here is US7612064B2, “Sulfopyrroles” (Takeda Pharmaceutical Company Limited, priority 2003, dated 2009).

The test system of one experiment is HeLa. Description: MTS proliferation assay. It is filed as cell-based, human. Conditions: 72 h. As for the experimental part: (§1) The assay is performed in 96 well tissue culture plates. […] The test compounds are added in 20 μl complete medium containing max 5% DMSO. The final compound concentrations in the assays are 10 μM, 3 μM, 1 μM and 0.3 μM, respectively. The assay plates are incubated for 72 h at culture conditions. The MTS reagent is prepared according to the manufacturer's protocol (Promega G1111). 20 μl MTS reagent are added to each well, the assay plates are quickly spun and incubated for another 3 h at culture conditions. Subsequently, the plates are shortly shacked and absorption measured with a microplate-reader at 492 nm.
Background: Tetrazolium assays rely on reduction of a dye to a coloured formazan, in cell work by metabolically active cells.

The subject of a further experiment is Jurkat. Description: MTS proliferation assay. It is filed as cell-based, human. Conditions: 72 h. As to the method:
as §1

The subject of the next experiment is MRC5. Description: MTS proliferation assay. It is filed as cell-based. Conditions: MRC5, 72 h. As for the experimental part: as §1
A short description of experiment [1]: Hoechst 33342 nuclear staining.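 For all read-outs here: apoptotic nuclei scored 0 none 1 weak under 50% of cells 2 strong over 50% of cells.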 Format: cell-based. The following applies: 24 h or 48 h incubation; for Hoechst 33342 nuclear staining score, HeLa: HeLa cells; for Hoechst 33342 nuclear staining score, Jurkat: Jurkat cells. As to the method: This assay is performed in 96 well tissue culture plates. Appropriate number of cells (adherent cells: 3-5*10^3, suspension cells: 8-10*10^3) are being seeded out in 80 μl complete medium. Adherent cells are incubated for 24 h for proper spreading out before addition of test compounds while suspension cells are immediately treated with test compounds after seeding out. The test compounds are added in 20 μl complete medium containing max 5% DMSO. […] […] The assay plates are then further incubated for 30 min and subsequently analyzed with a standard inverted fluorescence microscope.
The readout allows the determination of the fraction of apoptotic nuclei as well as other morphological criteria specific for apoptosis as a function of the treatment. The following scores are used: 0 relating to no activity, 1 relating to weak activity comprising less than 50% of the cells and score 2 relating to strong activity comprising more than 50% of the cells.

The mark [2] stands for this setting: conc 0.1 (final concentrations in μM).
Setting [3] is: conc 0.3 (final concentrations in μM).
Where [4] appears, read: conc 1 (final concentrations in μM).
Setting [5] is: conc 3 (final concentrations in μM).
The mark [6] stands for this setting: conc 10 (final concentrations in μM).

As usually defined, the IC50 is the point on the concentration scale where inhibition reaches its midpoint. A lower IC50 goes with higher potency. Consider `Cc1ccc(S(=O)(=O)n2cc(CN(C)C3CCN(C)CC3)cc2-c2ccc3c(c2)OCO3)cc1` [Example 26], for which the IC50 in the experiment on HeLa, in the experiment on Jurkat and in the experiment on MRC5 was > 1 µM throughout. Also, the “Hoechst 33342 nuclear staining score, HeLa” value in experiment [1] (setting [2]), in experiment [1] (setting [3]), in experiment [1] (setting [4]) and in experiment [1] (setting [5]) was 0 in each case. Besides, the “Hoechst 33342 nuclear staining score, Jurkat” value in experiment [1] (setting [2]), in experiment [1] (setting [3]), in experiment [1] (setting [4]) and in experiment [1] (setting [5]) was 0 throughout.

With `NC(=O)c1ccc(-c2cc(-c3ccc4c(c3)OCO4)n(S(=O)(=O)c3cccc(Cl)c3)c2)cc1` [Example 5, p-(1-[m-chlorobenzenesulfonyl]-2-[3,4-methylenedioxyphenyl]-4pyrrolyl)-benzamide], the half-inhibitory concentration (IC50) in the experiment on HeLa (Homo sapiens), in the experiment with Jurkat (Homo sapiens) and in the experiment with MRC5 (Homo sapiens) was > 1 µM in each case.

Turning to `Cc1ccc(S(=O)(=O)n2cc(CNC(CN3CCN(C)CC3)c3ccccc3)cc2-c2ccc3c(c2)OCO3)cc1` (centres unmarked) [Example 24], the half-inhibitory concentration (IC50) in the experiment on Jurkat and in the experiment on MRC5 was > 1 µM throughout. Moreover, the “Hoechst 33342 nuclear staining score, HeLa” value in experiment [1] (setting [2]), in experiment [1] (setting [3]), in experiment [1] (setting [4]) and in experiment [1] (setting [5]) was 0 in each case. In addition, the “Hoechst 33342 nuclear staining score, Jurkat” value in experiment [1] (setting [2]), in experiment [1] (setting [3]), in experiment [1] (setting [4]) and in experiment [1] (setting [5]) was 0 throughout.

Consider `CN1CCN(CCCNCc2cc(-c3ccc4c(c3)OCO4)n(S(=O)(=O)c3cccc(Cl)c3)c2)CC1` [Example 4, 1-(m-Chlorobenzenesulfonyl)-2-(3,4-methylenedioxyphenyl)-4-(N-[3-{4-methylpiperazinyl}-propyl]-aminomethyl)-pyrrole], for which the concentration for half-maximal inhibition (IC50) in the experiment on HeLa, in the experiment on Jurkat and in the experiment on MRC5 was > 1 µM each time.

Take `COc1cc(-c2cc(CNCCCN3CCN(C)CC3)cn2S(=O)(=O)c2ccc(C)cc2)cc(OC)c1OC` [Example 3]: the concentration for half-maximal inhibition (IC50) with HeLa, in the experiment with Jurkat and with MRC5 was > 1 µM in each case.

On to `Cc1ccc(S(=O)(=O)n2cc(CNc3ccc(S(N)(=O)=O)cc3)cc2-c2ccc3c(c2)OCO3)cc1` [Example 45], for which the half-maximal inhibitory concentration (IC50) in the experiment with HeLa and in the experiment on MRC5 was > 1 µM in each case. In addition, the “Hoechst 33342 nuclear staining score, HeLa” value in experiment [1] (setting [3]) is 0; in experiment [1] (setting [4]), 0; in experiment [1] (setting [5]) it was 0; in experiment [1] (setting [6]), 1 (weak activity comprising less than 50% of the cells). For the same compound, the “Hoechst 33342 nuclear staining score, Jurkat” value in experiment [1] (setting [3]) is 0; in experiment [1] (setting [4]), 0; in experiment [1] (setting [5]), 0; in experiment [1] (setting [6]), 2 (strong activity comprising more than 50% of the cells).

`Cc1ccc(S(=O)(=O)n2cc(-c3ccc(C(N)=O)cc3)cc2-c2ccc3c(c2)OCO3)cc1` [Example 47]: the half-inhibitory concentration (IC50) in the experiment on HeLa and with Jurkat was > 1 µM each time. Besides, the “Hoechst 33342 nuclear staining score, HeLa” value in experiment [1] (setting [2]) was 0; in experiment [1] (setting [3]) it was 0; in experiment [1] (setting [4]), 2 (strong activity comprising more than 50% of the cells); in experiment [1] (setting [5]), 2 (strong activity comprising more than 50% of the cells). In addition, the “Hoechst 33342 nuclear staining score, Jurkat” value in experiment [1] (setting [2]), in experiment [1] (setting [3]), in experiment [1] (setting [4]) and in experiment [1] (setting [5]) was 0 throughout.
